According to patent US9878986B2, “Compounds for selective histone deacetylase inhibitors, and pharmaceutical composition comprising the same” (CHONG KUN DANG PHARMACEUTICAL CORP., priority 2013, dated 2018):

How the values were obtained:
[1] = molecular target: HDAC1 (Homo sapiens, UniProt Q13547); experiment: Test of HDAC activities, HDAC1 Fluorimetric Drug Discovery Assay Kit; assay type: biochemical; set-up: purchased Enzolifesciences BML-AK511; details: samples at 100, 1000, 10000 nM; 37° C. 60 minutes; fluorescence Ex 390, Em 460; read-out: HDAC inhibitory activities, HDAC1
Chain of HDAC1 (Q13547 whole entry): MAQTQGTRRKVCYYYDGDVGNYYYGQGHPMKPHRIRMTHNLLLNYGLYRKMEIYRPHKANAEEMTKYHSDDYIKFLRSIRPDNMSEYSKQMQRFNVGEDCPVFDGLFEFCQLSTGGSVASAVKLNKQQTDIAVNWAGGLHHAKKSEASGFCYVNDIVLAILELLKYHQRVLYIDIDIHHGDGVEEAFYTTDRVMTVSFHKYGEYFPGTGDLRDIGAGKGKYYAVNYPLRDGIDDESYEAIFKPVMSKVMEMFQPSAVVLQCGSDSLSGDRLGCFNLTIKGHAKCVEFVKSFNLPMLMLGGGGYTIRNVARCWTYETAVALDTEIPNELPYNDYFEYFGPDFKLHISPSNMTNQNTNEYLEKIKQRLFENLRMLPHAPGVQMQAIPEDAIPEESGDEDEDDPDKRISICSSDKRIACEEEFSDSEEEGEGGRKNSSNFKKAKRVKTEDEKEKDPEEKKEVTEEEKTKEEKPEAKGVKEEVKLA
Experimental: (§1) The HDAC inhibitory activities of test materials were measured using the HDAC1 Fluorimetric Drug Discovery Assay Kit (Enzolifesciences: BML-AK511) and HDAC6 human recombinant (Calbiochem: 382180). In the HDAC1 assay, the samples were treated with concentrations of 100, 1000, and 10000 nM, and in the HDAC6 assay, the samples were treated with concentrations of 0.1, 1, 10, 100, and 1000 nM. After the treatment of the samples, the samples were reacted at 37° C. for 60 minutes, treated with a developer, and then reacted at 37° C. for 30 minutes. Then, the fluorescence intensity (Ex 390, Em 460) was measured using the FlexStation 3 (Molecular device).

[2] = molecular target: T1, HDAC 6 (Homo sapiens, UniProt Q9UBN7); experiment: Test of HDAC activities, HDAC6 (fluorimetric); assay type: biochemical; set-up: purchased Calbiochem 382180; details: samples at 0.1, 1, 10, 100, 1000 nM; 37° C. 60 minutes; fluorescence Ex 390, Em 460; read-out: HDAC inhibitory activities, HDAC6
T1 sequence (Q9UBN7 1-1215): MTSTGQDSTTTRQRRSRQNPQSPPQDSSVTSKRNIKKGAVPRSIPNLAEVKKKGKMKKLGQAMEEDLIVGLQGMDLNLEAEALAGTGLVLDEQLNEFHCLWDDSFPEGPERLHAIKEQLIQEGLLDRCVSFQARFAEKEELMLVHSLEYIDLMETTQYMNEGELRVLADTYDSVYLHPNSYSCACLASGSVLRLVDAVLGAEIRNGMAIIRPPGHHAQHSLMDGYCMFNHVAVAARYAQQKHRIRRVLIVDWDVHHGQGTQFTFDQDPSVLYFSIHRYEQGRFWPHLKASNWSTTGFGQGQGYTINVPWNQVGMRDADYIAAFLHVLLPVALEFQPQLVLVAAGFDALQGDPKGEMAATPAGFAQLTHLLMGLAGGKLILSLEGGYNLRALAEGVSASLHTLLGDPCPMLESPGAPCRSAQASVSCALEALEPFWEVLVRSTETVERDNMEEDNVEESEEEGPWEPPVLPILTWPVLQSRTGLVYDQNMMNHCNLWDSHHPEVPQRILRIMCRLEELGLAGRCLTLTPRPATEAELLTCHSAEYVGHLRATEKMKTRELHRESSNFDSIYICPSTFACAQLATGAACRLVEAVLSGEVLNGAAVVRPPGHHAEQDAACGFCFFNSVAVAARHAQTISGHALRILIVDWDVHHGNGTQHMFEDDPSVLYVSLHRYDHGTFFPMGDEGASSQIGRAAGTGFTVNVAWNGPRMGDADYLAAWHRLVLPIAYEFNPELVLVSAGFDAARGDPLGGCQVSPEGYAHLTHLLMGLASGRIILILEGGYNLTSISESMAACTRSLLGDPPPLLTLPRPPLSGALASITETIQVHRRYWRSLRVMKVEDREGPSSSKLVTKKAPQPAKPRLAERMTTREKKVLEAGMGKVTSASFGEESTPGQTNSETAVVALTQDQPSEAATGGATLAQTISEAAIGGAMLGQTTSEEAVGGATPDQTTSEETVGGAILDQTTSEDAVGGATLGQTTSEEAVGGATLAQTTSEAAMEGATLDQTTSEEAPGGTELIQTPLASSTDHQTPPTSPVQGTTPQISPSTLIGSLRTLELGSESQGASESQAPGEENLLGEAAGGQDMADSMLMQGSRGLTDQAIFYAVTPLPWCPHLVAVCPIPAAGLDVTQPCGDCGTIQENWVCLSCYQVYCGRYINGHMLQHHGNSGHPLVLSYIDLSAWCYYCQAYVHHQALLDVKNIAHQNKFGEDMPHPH
Experimental: as §1

IC50 [1] [nM] | IC50 [2] [nM] | Structure (SMILES)
7830 | 37 | O=C(NO)c1ccc(CN(C(=O)N2CCCCC2)c2ccc(Cl)c(C(F)(F)F)c2)cc1 [Compound 389, N-(4-chloro-3-(trifluoromethyl)phenyl)-N-(4-(hydroxycarbamoyl)benzyl)piperidine-1-carboxamide]
6220 | 20 | CC1CCN(C(=O)N(Cc2ccc(C(=O)NO)cc2)c2ccc(Cl)c(C(F)(F)F)c2)CC1 [Compound 390, N-(4-chloro-3-(trifluoromethyl)phenyl)-N-(4-(hydroxycarbamoyl)benzyl)-4-methylpiperidine-1-carboxamide]
2120 | 3 | O=C(NO)c1ccc(CN(C(=O)N2CCOCC2)c2ccc(Cl)c(C(F)(F)F)c2)cc1 [Compound 391, N-(4-chloro-3-(trifluoromethyl)phenyl)-N-(4-(hydroxycarbamoyl)benzyl)morpholine-4-carboxamide]
2870 | 5 | CC1CN(C(=O)N(Cc2ccc(C(=O)NO)cc2)c2ccc(Cl)c(C(F)(F)F)c2)CC(C)O1 (centres unmarked) [Compound 392, N-(4-chloro-3-(trifluoromethyl)phenyl)-N-(4-(hydroxycarbamoyl)benzyl)-2,6-dimethylmorpholine-4-carboxamide]
1110 | 5 | CN1CCN(C(=O)N(Cc2ccc(C(=O)NO)cc2)c2ccc(Cl)c(C(F)(F)F)c2)CC1 [Compound 393, N-(4-chloro-3-(trifluoromethyl)phenyl)-N-(4-(hydroxycarbamoyl)benzyl)-4-methylpiperazine-1-carboxamide]
2590 | 11 | CCN1CCN(C(=O)N(Cc2ccc(C(=O)NO)cc2)c2ccc(Cl)c(C(F)(F)F)c2)CC1 [Compound 394, N-(4-chloro-3-(trifluoromethyl)phenyl)-4-ethyl-N-(4-(hydroxycarbamoyl)benzyl)piperazine-1-carboxamide]
489 | 5 | O=C(NO)c1ccc(CN(C(=O)N2CCOCC2)c2cccc(-c3cc(F)cc(F)c3)c2)cc1 [Compound 395, N-(3′,5′-difluorobiphenyl-3-yl)-N-(4-(hydroxycarbamoyl)benzyl)morpholine-4-carboxamide]
257 | 5 | CN(C)c1ccc(-c2cccc(N(Cc3ccc(C(=O)NO)cc3)C(=O)N3CCOCC3)c2)cn1 [Compound 396, N-(3-(6-(dimethylamino)pyridin-3-yl)phenyl)-N-(4-(hydroxycarbamoyl)benzyl)morpholine-4-carboxamide]
1000 | 14 | O=C(NO)c1ccc(CN(C(=O)N2CCOCC2)c2cccc(-c3cncnc3)c2)cc1 [Compound 397, N-(4-(hydroxycarbamoyl)benzyl)-N-(3-(pyrimidin-5-yl)phenyl)morpholine-4-carboxamide]
4450 | 32 | O=C(NO)c1ccc(CN(C(=O)N2CCOCC2)c2cccc(-c3cc(C(F)(F)F)cc(C(F)(F)F)c3)c2)cc1 [Compound 398, N-(3′,5′-bis(trifluoromethyl)biphenyl-3-yl)-N-(4-(hydroxycarbamoyl)benzyl)morpholine-4-carboxamide]
302 | 7 | O=C(NO)c1ccc(CN(C(=O)N2CCOCC2)c2cccc(-c3ccc4c(c3)OCCO4)c2)cc1 [Compound 399, N-(3-(2,3-dihydrobenzo[b][1,4]dioxin-6-yl)phenyl)-N-(4-(hydroxycarbamoyl)benzyl)morpholine-4-carboxamide]
770 | 8 | COc1cc(-c2cccc(N(Cc3ccc(C(=O)NO)cc3)C(=O)N3CCOCC3)c2)cc(OC)c1OC [Compound 400, N-(4-(hydroxycarbamoyl)benzyl)-N-(3′,4′,5′-trimethoxybiphenyl-3-yl)morpholine-4-carboxamide]
1790 | 8 | Cc1cccc(C)c1-c1cccc(N(Cc2ccc(C(=O)NO)cc2)C(=O)N2CCOCC2)c1 [Compound 401, N-(2′,6′-dimethylbiphenyl-3-yl)-N-(4-(hydroxycarbamoyl)benzyl)morpholine-4-carboxamide]
170 | 3 | O=C(NO)c1ccc(CN(C(=O)N2CCOCC2)c2cccc(-c3ccoc3)c2)cc1 [Compound 402, N-(3-(furan-3-yl)phenyl)-N-(4-(hydroxycarbamoyl)benzyl)morpholine-4-carboxamide]
453 | 1 | O=C(NO)c1ccc(CN(C(=O)N2CCOCC2)c2cccc(C3=CCOCC3)c2)cc1 [Compound 403, N-(3-(3,6-dihydro-2H-pyran-4-yl)phenyl)-N-(4-(hydroxycarbamoyl)benzyl)morpholine-4-carboxamide]
3500 | 16 | CN1CC=C(c2cccc(N(Cc3ccc(C(=O)NO)cc3)C(=O)N3CCOCC3)c2)CC1 [Compound 404, N-(4-(hydroxycarbamoyl)benzyl)-N-(3-(1-methyl-1,2,3,6-tetrahydropyridin-4-yl)phenyl) morpholine-4-carboxamide]
1450 | 3 | CC(C)(C)OC(=O)N1CC=C(c2cccc(N(Cc3ccc(C(=O)NO)cc3)C(=O)N3CCOCC3)c2)CC1 [Compound 405, tert-butyl 4-(3-(N-(4-(hydroxycarbamoyl)benzyl)morpholine-4-carboxamido)phenyl)-5,6-dihydropyridine-1(2H)-carboxylate]
860 | 0.4 | O=C(NO)c1ccc(CN(C(=O)N2CCOCC2)c2ccc(F)cc2F)cc1 [Compound 413, N-(2,4-difluorophenyl)-N-(4-(hydroxycarbamoyl)benzyl)morpholine-4-carboxamide]
1170 | 1 | O=C(NO)c1ccc(CN(C(=O)N2CCCCC2)c2ccc(F)cc2F)cc1 [Compound 414, N-(2,4-difluorophenyl)-N-(4-(hydroxycarbamoyl)benzyl)piperidine-1-carboxamide]
1220 | 5 | CC1CN(C(=O)N(Cc2ccc(C(=O)NO)cc2)c2ccc(F)cc2F)CC(C)O1 (centres unmarked) [Compound 415, N-(2,4-difluorophenyl)-N-(4-(hydroxycarbamoyl)benzyl)-2,6-dimethylmorpholine-4-carboxamide]
930 | 2 | CN1CCN(C(=O)N(Cc2ccc(C(=O)NO)cc2)c2ccc(F)cc2F)CC1 [Compound 416, N-(2,4-difluorophenyl)-N-(4-(hydroxycarbamoyl)benzyl)-4-methylpiperazine-1-carboxamide]
190 | 2 | O=C(NO)c1ccc(CN(C(=O)N2CCOCC2)c2cccc(-c3ccc4c(c3)OCO4)c2)cc1 [Compound 418, N-(3-(benzo[d][1,3]dioxol-5-yl)phenyl)-N-(4-(hydroxycarbamoyl)benzyl)morpholine-4-carboxamide]
460 | 5 | CC(=O)N1CC=C(c2cccc(N(Cc3ccc(C(=O)NO)cc3)C(=O)N3CCOCC3)c2)CC1 [Compound 419, N-(3-(1-acetyl-1,2,3,6-tetrahydropyridin-4-yl)phenyl)-N-(4-(hydroxycarbamoyl)benzyl) morpholine-4-carboxamide]
310 | 4 | CS(=O)(=O)N1CC=C(c2cccc(N(Cc3ccc(C(=O)NO)cc3)C(=O)N3CCOCC3)c2)CC1 [Compound 420, N-(4-(hydroxycarbamoyl)benzyl)-N-(3-(1-(methylsulfonyl)-1,2,3,6-tetrahydropyridin-4-yl)phenyl)morpholine-4-carboxamide]
1740 | 4 | Cc1ccc(N(Cc2ccc(C(=O)NO)cc2)C(=O)N2CCCCC2)c(F)c1 [Compound 438, N-(2-fluoro-4-methylphenyl)-N-(4-(hydroxycarbamoyl)benzyl)piperidine-1-carboxamide]
